The values that follow come from PubChem BioAssay (NCI).

Test systems include A498 renal; IGROV1 ovarian; LOX IMVI melanoma; NCI-H23 lung; OVCAR-5 ovarian; SK-MEL-5 melanoma; SR leukemia; TK-10 renal; HOP-62 NSCLC; NCI/ADR-RES ovarian.
Common to all, as to assay: NCI tumour cell line growth inhibition, 48 h

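Tested at 5 concentrations; 48 h exposure; 96-well plates; endpoints linearly interpolated, else capped at highest concentration. Abbreviation: GI50, concentration required for 50% inhibition of growth. TGI is the concentration that stops growth completely.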

With `CCOC(=O)c1c(C)nc2c(c1N)/C(=C/c1ccccn1)C(=O)N2Cc1ccccc1`, the GI50 in the assay on A498 renal is 1.54 µM; with IGROV1 ovarian it was 1200 nM; in the assay with LOX IMVI melanoma, 830 nM; with NCI-H23 lung it was 1290 nM; in the assay with OVCAR-5 ovarian, 1040 nM; with SK-MEL-5 melanoma, 950 nM. Besides, the GI50 in the assay with SR leukemia was 1370 nM; with TK-10 renal, 1510 nM. Besides, the TGI with A498 renal is greater than 50 µM; in the assay with IGROV1 ovarian, 3.47 µM; in the assay with LOX IMVI melanoma, 1.54 µM; in the assay with NCI-H23 lung it was 4.35 µM; in the assay on OVCAR-5 ovarian, 2.68 µM; in the assay with SK-MEL-5 melanoma, 1.92 µM. The TGI with SR leukemia and in the assay with TK-10 renal was greater than 50 µM in each case.

On to `C(=C\C(Sc1ccccc1)c1ccccc1)/NNC1=NC(c2ccccc2)C(c2ccccc2)=NN1` (configuration not stated), for which the TGI with HOP-62 NSCLC, with IGROV1 ovarian, in the assay with LOX IMVI melanoma, in the assay on NCI-H23 lung, in the assay on OVCAR-5 ovarian and with SK-MEL-5 melanoma was greater than 100 µM throughout. For the same compound, the TGI is 77.7 µM in the assay on SR leukemia and greater than 100 µM with TK-10 renal.

`CCN(CC)CCN1c2nc3ccccc3cc2Sc2cc3ccccc3nc21`: the GI50 was 3.08 µM in the assay on A498 renal; 1420 nM in the assay with HOP-62 NSCLC; 473 nM in the assay with IGROV1 ovarian; 1570 nM in the assay with LOX IMVI melanoma; 2510 nM in the assay with NCI-H23 lung; 2500 nM in the assay on NCI/ADR-RES ovarian. In addition, the GI50 is 1650 nM with OVCAR-5 ovarian, 1360 nM in the assay with SK-MEL-5 melanoma and 3540 nM in the assay on TK-10 renal. Also, the TGI with A498 renal came to 8.62 µM; in the assay with HOP-62 NSCLC it was 3.06 µM; in the assay on IGROV1 ovarian, 2.48 µM; with LOX IMVI melanoma, 3.03 µM; in the assay on NCI-H23 lung, 10.6 µM; with NCI/ADR-RES ovarian, 7.83 µM. The TGI is 4.55 µM in the assay with OVCAR-5 ovarian, 2.69 µM with SK-MEL-5 melanoma and 8.74 µM in the assay on TK-10 renal.

On to `CCOC(=O)c1[nH]c2cc(OC)c(OC)cc2c1CN(C)C`, for which the TGI in the assay with A498 renal, in the assay with IGROV1 ovarian, in the assay with LOX IMVI melanoma, in the assay on NCI-H23 lung, with OVCAR-5 ovarian and in the assay on SK-MEL-5 melanoma was greater than 100 µM in each case. Also, the TGI in the assay on SR leukemia and in the assay with TK-10 renal was greater than 100 µM throughout.

For the compound `CCN1C(=O)N(CC)C2C1NN=c1s/c(=C3\C(=O)N(C4CCCC4)c4ccccc43)c(=O)n12` (configuration not stated), the GI50 was 0.198 µM in the assay on A498 renal; 1540 nM with HOP-62 NSCLC; 773 nM in the assay on IGROV1 ovarian; 1630 nM with LOX IMVI melanoma; 2490 nM in the assay with NCI-H23 lung; 3750 nM in the assay on OVCAR-5 ovarian. In addition, the GI50 with SR leukemia was 392 nM; in the assay on TK-10 renal, 2780 nM. In addition, the TGI was 0.854 µM in the assay on A498 renal; 14.4 µM in the assay with HOP-62 NSCLC; greater than 100 µM in the assay with IGROV1 ovarian; greater than 100 µM with LOX IMVI melanoma; 13.5 µM in the assay with NCI-H23 lung; greater than 100 µM in the assay on OVCAR-5 ovarian. The TGI was greater than 100 µM in the assay on SR leukemia and 9.89 µM in the assay with TK-10 renal.

`C=C1C(=O)O[C@H]2[C@H]1CC/C(COC(=O)/C=C\C(=O)NCc1ccc(Cn3c(=O)sn(CCI)c3=O)cc1)=C\CC[C@@]1(C)O[C@@H]21`: the GI50 in the assay with A498 renal is 13.9 µM; in the assay with HOP-62 NSCLC, 15100 nM; with IGROV1 ovarian, 3170 nM; in the assay with LOX IMVI melanoma it was 2180 nM; in the assay on NCI-H23 lung, 3340 nM; in the assay with NCI/ADR-RES ovarian, 10200 nM. Also, the GI50 was 3560 nM with OVCAR-5 ovarian, 12800 nM in the assay on SK-MEL-5 melanoma and 2090 nM in the assay on TK-10 renal. Further, the TGI was 27 µM in the assay on A498 renal; 28.6 µM in the assay with HOP-62 NSCLC; 11.9 µM in the assay on IGROV1 ovarian; 4.88 µM in the assay on LOX IMVI melanoma; 11.8 µM with NCI-H23 lung; greater than 100 µM with NCI/ADR-RES ovarian. Besides, the results for the TGI in the assay with OVCAR-5 ovarian, in the assay on SK-MEL-5 melanoma and with TK-10 renal were 13.3 µM, 25.7 µM and 4.35 µM, respectively.

As for `CC(=O)NNc1nc(C)c(C(=O)NNC(=O)C(=O)Nc2c([N+](=O)[O-])ccc(C)c2C)s1`, the TGI in the assay with A498 renal, in the assay with HOP-62 NSCLC, in the assay with IGROV1 ovarian, in the assay on LOX IMVI melanoma, in the assay on NCI-H23 lung and in the assay with OVCAR-5 ovarian was greater than 100 µM each time. In addition, the TGI in the assay on SK-MEL-5 melanoma, in the assay with SR leukemia and with TK-10 renal was greater than 100 µM throughout.

Consider `CC(=O)c1ccccc1NC(=O)C(=O)C(C(=O)c1ccccc1-c1ccccc1)C1OC(=O)c2ccccc21` (configuration not stated), for which the TGI was determined as 38.2 µM in the assay with A498 renal; 44.9 µM in the assay with HOP-62 NSCLC; 54.3 µM in the assay on IGROV1 ovarian; 37.7 µM in the assay on LOX IMVI melanoma; 31 µM in the assay with NCI-H23 lung; 64.9 µM in the assay on OVCAR-5 ovarian. Besides, the values for the TGI with SK-MEL-5 melanoma, in the assay with SR leukemia and in the assay on TK-10 renal were 33.8 µM, 88.9 µM and 32 µM, respectively.

Regarding `CCOC(=N)CC(=O)Nc1ccccc1`, the TGI was greater than 46.4 µM in the assay with A498 renal; greater than 46.4 µM in the assay with HOP-62 NSCLC; greater than 46.4 µM in the assay on IGROV1 ovarian; greater than 71.4 µM with LOX IMVI melanoma; greater than 46.4 µM with NCI-H23 lung; greater than 100 µM in the assay with OVCAR-5 ovarian. In addition, the TGI in the assay with SK-MEL-5 melanoma is greater than 46.4 µM; in the assay on SR leukemia, greater than 69.1 µM; with TK-10 renal, greater than 46.4 µM.

`CC1(C)C(=O)C(C)(C)C1=NNC(N)=S`: the TGI with HOP-62 NSCLC, in the assay with IGROV1 ovarian, in the assay on LOX IMVI melanoma, in the assay on NCI-H23 lung, in the assay with OVCAR-5 ovarian and with SK-MEL-5 melanoma was greater than 100 µM throughout. The TGI in the assay on SR leukemia and with TK-10 renal was greater than 100 µM in each case.

With `CCCCCCCCCCNCCSS(=O)(=O)O`, the GI50 in the assay on A498 renal was 5.48 µM; in the assay with HOP-62 NSCLC it was 1860 nM; in the assay with IGROV1 ovarian it was 4820 nM; with LOX IMVI melanoma, 1690 nM; in the assay with NCI-H23 lung it was 1900 nM; in the assay on NCI/ADR-RES ovarian, 2110 nM. Moreover, the GI50 in the assay with OVCAR-5 ovarian was 2270 nM; with SK-MEL-5 melanoma, 2140 nM; with TK-10 renal, 5310 nM. Besides, the TGI in the assay with A498 renal turned out to be 19.9 µM; in the assay with HOP-62 NSCLC, 3.58 µM; in the assay with IGROV1 ovarian it was 17.6 µM; with LOX IMVI melanoma it was 3.26 µM; in the assay on NCI-H23 lung, 4.49 µM; in the assay with NCI/ADR-RES ovarian it was 4.37 µM. The TGI is 4.24 µM in the assay on OVCAR-5 ovarian, 5.59 µM in the assay on SK-MEL-5 melanoma and 17.7 µM in the assay with TK-10 renal.
